Results taken from PubChem BioAssay AID330 (DTP/NCI, 2004).
“And” between values parts separate entries of the source, which are not always exact repeats. Equal entries are not always repeated. Inconclusive results and toxic doses are left out. How the source made its calls: active means survival T/C of 150% or more; inactive means T/C below 125% in these data.

System: P388 leukemia ip, CD2F1 mice, survival T/C
Assay: NCI In Vivo Anticancer Drug Screen. Data for tumor model P388 Leukemia (intraperitoneal) in CD2F1 (CDF1) mice
Conditions: endpoint: median survival time, higher = longer survival
How it was run: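 Mice carrying the transplanted tumor received test compound or vehicle. Survival was recorded in each group, and the value is the treated-group measurement divided by that of the vehicle-treated control group.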

[1] = dose: 50.0 mg/kg/injection, schedule: Q01DX009 (ip), vehicle: saline
[2] = dose: 100.0 mg/kg/injection, schedule: Q01DX009 (ip), vehicle: saline
[3] = dose: 200.0 mg/kg/injection, schedule: Q01DX009 (ip), vehicle: saline
[4] = dose: 12.5 mg/kg/injection, schedule: Q01DX005 (ip), vehicle: Klucel (hydroxypropylcellulose) (HPC)
[5] = dose: 25.0 mg/kg/injection, schedule: Q01DX005 (ip), vehicle: Klucel (hydroxypropylcellulose) (HPC)
[6] = dose: 50.0 mg/kg/injection, schedule: Q01DX009 (ip), vehicle: saline with Tween-80
[7] = dose: 100.0 mg/kg/injection, schedule: Q01DX009 (ip), vehicle: saline with Tween-80
[8] = dose: 200.0 mg/kg/injection, schedule: Q01DX009 (ip), vehicle: saline with Tween-80
[9] = dose: 50.0 mg/kg/injection, schedule: Q01DX005 (ip), vehicle: Klucel (hydroxypropylcellulose) (HPC)

Measured: T/C

CC1=C(CO)C(=O)OC(C(C)C2CCC3C4CC5OC56C(O)C(N5CCCCCC5)CC(=O)C6(C)C4CCC23C)C1 (stereo not given)
inactive: dose: 9.38 mg/kg/injection, schedule: Q01DX005 (ip), vehicle: Klucel (hydroxypropylcellulose) (HPC) 101 % of control | dose: 18.75 mg/kg/injection, schedule: Q01DX005 (ip), vehicle: Klucel (hydroxypropylcellulose) (HPC) 101 % of control | dose: 37.5 mg/kg/injection, schedule: Q01DX005 (ip), vehicle: Klucel (hydroxypropylcellulose) (HPC) 105 % of control | dose: 75.0 mg/kg/injection, schedule: Q01DX005 (ip), vehicle: Klucel (hydroxypropylcellulose) (HPC) 105 % of control | dose: 150.0 mg/kg/injection, schedule: Q01DX005 (ip), vehicle: Klucel (hydroxypropylcellulose) (HPC) 104 % of control

O=C(N/N=C\c1ccc(O)cc1)C(=O)N/N=C\c1ccc(O)cc1
inactive: [1] 87 % of control | [2] 92 % of control | [3] 96 % of control

O=C1N2CCNc3ccccc3C(c3ccccc3)N1CC2 (stereo not given)
inactive: dose: 6.25 mg/kg/injection, schedule: Q01DX005 (ip), vehicle: Klucel (hydroxypropylcellulose) (HPC) 88 % of control | [4] 93 % of control | [5] 102 % of control

COc1cc[c]([Sb]2([c]3ccc(OC)cc3)([c]3ccc(OC)cc3)[NH]c3cc(C(c4ccccc4)(c4ccccc4)c4ccccc4)cc(C(C)(C)C)c3[O]2)cc1
inactive: [6] 100 % of control | [7] 99 % of control | [8] 100 % of control

CCN(CC)P(=O)(c1cccn1C)c1cccn1C
inactive: [6] 100 % of control | [7] 102 % of control | [8] 97 % of control

O=C(NCCCCOc1ccc([N+](=O)[O-])cc1Cl)NC1CCCCC1
inactive: dose: 50.0 mg/kg/injection, schedule: Q01DX001 (ip), vehicle: saline with Tween-80 90 % of control | dose: 100.0 mg/kg/injection, schedule: Q01DX001 (ip), vehicle: saline with Tween-80 100 % of control | dose: 200.0 mg/kg/injection, schedule: Q01DX001 (ip), vehicle: saline with Tween-80 100 % of control

C[C@]12CCC(=O)C=C1CC[C@H]1[C@@H]3CC[C@](O)(C(=O)CF)[C@@]3(C)C[C@H](O)[C@@]12F
inactive: dose: 3.12 mg/kg/injection, schedule: Q01DX009 (ip), vehicle: saline 105 % of control | dose: 6.25 mg/kg/injection, schedule: Q01DX009 (ip), vehicle: saline 102 % of control | dose: 12.5 mg/kg/injection, schedule: Q01DX009 (ip), vehicle: saline 118 % of control | dose: 25.0 mg/kg/injection, schedule: Q01DX009 (ip), vehicle: saline 90 % of control

CC1=CC(=O)c2c(O)c3c(c(O)c2C1=O)C1C(O)C(C3=O)C23C(=O)c4c(O)c(C)cc(O)c4C(O)=C2C(=O)CC(O)C13 (stereo not given)
inactive: dose: 1.5 mg/kg/injection, schedule: Q01DX005 (ip), vehicle: Klucel (hydroxypropylcellulose) (HPC) 101 % of control | dose: 3.0 mg/kg/injection, schedule: Q01DX005 (ip), vehicle: Klucel (hydroxypropylcellulose) (HPC) 115 % of control | dose: 6.0 mg/kg/injection, schedule: Q01DX005 (ip), vehicle: Klucel (hydroxypropylcellulose) (HPC) 115 % of control | dose: 12.0 mg/kg/injection, schedule: Q01DX005 (ip), vehicle: Klucel (hydroxypropylcellulose) (HPC) 113 % of control | [4] 108 % of control | [5] 105 % of control | [9] 105 % of control

O=C(Nc1nnc(-c2ccccc2)s1)c1cc(=O)c2cc(Cl)ccc2o1
inactive: [9] 114 % of control | dose: 100.0 mg/kg/injection, schedule: Q01DX005 (ip), vehicle: Klucel (hydroxypropylcellulose) (HPC) 98 % of control | dose: 200.0 mg/kg/injection, schedule: Q01DX005 (ip), vehicle: Klucel (hydroxypropylcellulose) (HPC) 106 % of control

Cc1nn(C(N)=S)c(C)c1N=Nc1cccc(Cl)c1Cl
inactive: dose: 100.0 mg/kg/injection, schedule: Q04DX002 (ip), vehicle: Klucel (hydroxypropylcellulose) (HPC) 100 % of control | dose: 200.0 mg/kg/injection, schedule: Q04DX002 (ip), vehicle: Klucel (hydroxypropylcellulose) (HPC) 96 % of control | dose: 400.0 mg/kg/injection, schedule: Q04DX002 (ip), vehicle: Klucel (hydroxypropylcellulose) (HPC) 92 % of control

NC1C(=O)Nc2ccccc21 (stereo not given)
inactive: dose: 60.0 mg/kg/injection, schedule: Q01DX005 (ip), vehicle: saline 95 % of control | dose: 120.0 mg/kg/injection, schedule: Q01DX005 (ip), vehicle: saline 103 % of control

COc1ccc2nccc(CC(O)C(Cl)(Cl)Cl)c2c1 (stereo not given)
inactive: dose: 50.0 mg/kg/injection, schedule: Q01DX005 (ip), vehicle: saline with Tween-80 105 % of control | dose: 100.0 mg/kg/injection, schedule: Q01DX005 (ip), vehicle: saline with Tween-80 93 % of control | dose: 200.0 mg/kg/injection, schedule: Q01DX005 (ip), vehicle: saline with Tween-80 101 % of control

CC/C(=N/NS(=O)(=O)c1ccc(C)cc1)c1ccc(C(C)(C)C)cc1
inactive: [1] 99 % of control and 96 % of control | [2] 102 % of control | [3] 102 % of control and 87 % of control

On1cc/c(=N\N=C\c2ccc(N(CCCl)CCCl)cc2)c2ccc(Cl)cc21
inactive: [6] 101 % of control | [7] 101 % of control | [8] 94 % of control

COc1ccc2ccc3c(c2c1)C(=O)CC3
inactive: dose: 12.5 mg/kg/injection, schedule: Q01DX009 (ip), vehicle: distilled water + Tween-80 101 % of control | dose: 25.0 mg/kg/injection, schedule: Q01DX009 (ip), vehicle: distilled water + Tween-80 98 % of control | dose: 50.0 mg/kg/injection, schedule: Q01DX009 (ip), vehicle: distilled water + Tween-80 107 % of control | dose: 100.0 mg/kg/injection, schedule: Q01DX009 (ip), vehicle: distilled water + Tween-80 98 % of control | dose: 200.0 mg/kg/injection, schedule: Q01DX009 (ip), vehicle: distilled water + Tween-80 98 % of control

CCOC(=O)c1ccc(NC(=S)N(CCC#N)C2CCCCC2)cc1
inactive: dose: 50.0 mg/kg/injection, schedule: Q01DX009 (ip), vehicle: Klucel (hydroxypropylcellulose) (HPC) 93 % of control | dose: 100.0 mg/kg/injection, schedule: Q01DX009 (ip), vehicle: Klucel (hydroxypropylcellulose) (HPC) 102 % of control | dose: 200.0 mg/kg/injection, schedule: Q01DX009 (ip), vehicle: Klucel (hydroxypropylcellulose) (HPC) 98 % of control

O=c1[nH]c2c(ccc3ccc[n+]([O-])c32)c2c1CCC2
inactive: dose: 100.0 mg/kg/injection, schedule: Q04DX002 (ip), vehicle: saline 100 % of control | dose: 200.0 mg/kg/injection, schedule: Q04DX002 (ip), vehicle: saline 90 % of control | dose: 400.0 mg/kg/injection, schedule: Q04DX002 (ip), vehicle: saline 100 % of control

O=C(O)CCSSCCCS(=O)O
inactive: dose: 50.0 mg/kg/injection, schedule: Q01DX005 (ip), vehicle: saline 109 % of control | dose: 100.0 mg/kg/injection, schedule: Q01DX005 (ip), vehicle: saline 114 % of control | dose: 200.0 mg/kg/injection, schedule: Q01DX005 (ip), vehicle: saline 124 % of control

O=C1CSC(c2ccc(O)cc2)N1c1nncs1 (stereo not given)
inactive: dose: 60.0 mg/kg/injection, schedule: Q01DX005 (ip), vehicle: saline with Tween-80 107 % of control | dose: 120.0 mg/kg/injection, schedule: Q01DX005 (ip), vehicle: saline with Tween-80 104 % of control | dose: 240.0 mg/kg/injection, schedule: Q01DX005 (ip), vehicle: saline with Tween-80 98 % of control
